{"source": "patent US9827227B2", "about": "“Controlled release pharmaceutical formulations of nitazoxanide” (Romark Laboratories L.C., priority 2009, dated 2017)", "origin": "cited, not measured here", "key": {"[1]": {"details": "after oral administration of nitazoxanide in humans"}, "DNA viruses": {"system": "DNA viruses", "details": "in vitro, in words"}, "hepatitis C virus (HCV)": {"system": "hepatitis C virus (HCV)", "details": "in vitro and in clinical trials, in words"}}, "data": [{"molecule": "O=C(Nc1ncc([N+](=O)[O-])s1)c1ccccc1O", "note": "[tizoxanide]", "values": [{"measurement": "half-life in plasma", "setting": "[1]", "result": "approximately 1.5 hours"}, {"measurement": "activity against certain DNA viruses", "setting": "DNA viruses", "result": "active"}, {"measurement": "activity against hepatitis C virus (HCV)", "setting": "hepatitis C virus (HCV)", "result": "activity against hepatitis C virus"}]}, {"molecule": "CC(=O)Oc1ccccc1C(=O)Nc1ncc([N+](=O)[O-])s1", "note": "[Nitazoxanide, 2-(acetolyloxy)-N-(5-nitro-2-thiazolyl) benzamide]", "values": [{"measurement": "activity against certain DNA viruses", "setting": "DNA viruses", "result": "active"}, {"measurement": "activity against hepatitis C virus (HCV)", "setting": "hepatitis C virus (HCV)", "result": "activity against hepatitis C virus"}]}]}
